# Source: article PMC7762046, “Fragments of a Wheat Hevein-Like Antimicrobial Peptide Augment the Inhibitory Effect of a Triazole Fungicide on Spore Germination of Fusarium oxysporum and Alternaria solani” (Antibiotics, 2020)
# Where two headings read alike, the source gives them in different places. Marks after values point to notes of the source that are not given here. Residues, ends and D or L forms follow the SMILES beside them.
# Columns and labels:
# [1] = test system: F. oxysporum; type: cell-based, Fusarium oxysporum f. sp. lycopersici (strain F37)
# Method: In the first series of these experiments, we tested the inhibitory effect of the fragments against F. oxysporum and compared the inhibitory activity of the fragments to each other and to the entire WAMP-2 peptide. Microconidia of the pathogen were treated to each of the WAMP-2 fragments taken at three or four concentrations ranging between 50 and 200 (WAMP-N, WAMP-G2), 100 and 400 (WAMP-G1), or 50 and 400 (WAMP-C) µg/mL. […] After the treatments, the rate of germinated conidia was determined, expressed as the percent relative to the total number of conidia counted (500 ones per treatment). Effective doses (EDs) providing a 50% or 99.9% inhibition were calculated by probit analysis. The performed analysis confirmed our previous data on the antifungal activity of WAMP-2-derived fragments towards the Fusarium wilt agent.
# (§1) The inhibitory effect of synthesized peptides on conidial germination of fungi was assessed by a microtiterplate assay. Fungal conidia were added to WAMP-2-derived peptides, already dissolved in SDW, to prepare suspensions having final concentrations of 10^5 microconidia/mL (F. oxysporum) or 3 × 10^4 macroconidia/mL (A. solani). Resulting suspensions were incubated at 20–22 °C overnight in wells of 96-well microtiter plates. Control suspensions (with the same final concentrations of conidia) were prepared using SDW. Thereafter, germinated and non-germinated conidia (500 ones of each pathogen per treatment) were counted in treated and control suspensions using an inverted microscope. The average number of conidia germinated in these suspensions was calculated and expressed as the percent of the total number of the counted conidia. In addition, percent germination inhibition in the treated conidia, relative to germination in controls, was determined and indicated as levels of the inhibitory effect in Table 2 and Table 3. Oligopeptides were tested at final concentrations of 50, 100, 200, and 400 µg/mL, which were selected based on previous results of testing of the same WAMP-2-derived peptides for the ability to inhibit spore germination in other Fusarium and Alternaria species.
# Inhibitory concentrations of the peptides providing in vitro 50% or 99% in vitro suppression of conidial germination (ED50, and ED99, respectively) were determined by the probit analysis with the involvement of a linear regression. In a regression equation (Y = ax + b) used in probit analyses, Y is the probit value for 50% or 99% inhibition levels, x values are decimal logarithms of the correspondent concentrations, and a and b represent regression coefficients. The calculated ED99 values from the probit analysis were considered as the minimum fungicidal concentration (MFC), i.e., the lowest concentration of a peptide, used alone, resulting in […] inhibition of conidial germination.
# For each of the two pathogens, microtiter plate tests with synthesized peptides included three independent experimental series. Each experiment included 5 replications of each treatment, 100 conidia per each one (n = 500). […] Mean values, standard deviations, standard errors, as well as significant differences from controls and between treatments (t-test for independent variables, p ≤ 0.05), were calculated using STATISTICA v. […] Approximation of confidence values (R^2) and regression coefficients were determined using statistical functions of Microsoft Excel 2013 (Microsoft Corp. Redmond, WA, USA).
# [2] = test system: A. solani; type: cell-based, Alternaria solani (strain MO-VNIIF-9-2018)
# Method: as §1, with “Oligopeptides were tested at final concentrations of 50, 100, 200, and 400 µg/mL, which were selected based on previous results of testing of the same WAMP-2-derived peptides for the ability to inhibit spore germination in other Fusarium and Alternaria species.” left out
# For each of the two pathogens, microtiter plate tests with synthesized peptides included three independent experimental series. […] Mean values, standard deviations, standard errors, as well as significant differences from controls and between treatments (t-test for independent variables, p ≤ 0.05), were calculated using STATISTICA v. […]
# [3] = test system: F. oxysporum; type: cell-based, Fusarium oxysporum f. sp. lycopersici (strain F37); conditions: for Expected additive inhibitory effect (Ee), peptide combined with Folicur: calculated by Limpel's formula
# Method: (§2) The assays were performed in 96-well microtiter plates, using a “checkerboard” design. Fungal conidia were treated with either Folicur® or peptide fragments, each alone, and, in parallel, were subjected to combined treatments wherein the fungicide and one of the WAMP-2-derived peptides were mixed in the same concentration as when used alone. […] However, enhancement potency varied depending on the pathogen, the WAMP fragment, and co-applied concentrations of the WAMP-2 fragments and Folicur®.
# as §1
# (§3) In vitro tests involving pathogen sensitization to Folicur® EC 250 were designed under the principle of a microdilution checkerboard assay. Fungal conidia were incubated in 96-well plates in mixtures of the fungicide and each of the peptides at the above-mentioned concentrations in parallel with conidia’ incubation in the solutions of Folicur® or the oligopeptides, alone, used at the same final concentrations as in the mixtures.
# (§4) To reveal oligopeptide/fungicide synergy, the Limpel criterion Ee < Er was determined by Formula (1):Ee,% = (X + Y) − XY/100 < Er,% (at p ≤ 0.05),(1) where Ee is the level of an expected additive effect from application of both test compounds; X and Y represent inhibition of the spore germination in % by each antifungal agent used alone; and Er is the percentage of actual inhibition obtained experimentally by co-application of X and Y.
# (§5) For each of the two pathogens, microtiter plate tests with synthesized peptides included three independent experimental series. Each experiment included 5 replications of each treatment, 100 conidia per each one (n = 500). Experiments evaluating the sensitizing activity of the tested peptides on leaf disks and detached tomato seedlings were additionally repeated twice. Mean values, standard deviations, standard errors, as well as significant differences from controls and between treatments (t-test for independent variables, p ≤ 0.05), were calculated using STATISTICA v. 6.1 software (StatSoft Inc., Tulsa, OK, USA). Approximation of confidence values (R^2) and regression coefficients were determined using statistical functions of Microsoft Excel 2013 (Microsoft Corp. Redmond, WA, USA).
# [4] = test system: A. solani; type: cell-based, Alternaria solani (strain MO-VNIIF-9-2018); remark: listed apart in the source
# Method: as §2, §1, §3, §4, §5
compound,measurement,setting,value
N=C(N)NCCC[C@H](NC(=O)[C@H](CS)NC(=O)CNC(=O)[C@H](CCCNC(=N)N)NC(=O)[C@H](CS)NC(=O)[C@H](CCC(N)=O)NC(=O)[C@H](CO)NC(=O)[C@H](CCC(N)=O)NC(=O)[C@H](CS)NC(=O)[C@H](CO)NC(=O)CNC(=O)[C@H](CCCCN)NC(=O)CN)C(=O)O [WAMP-C] (H-GKGSCQSQCRGCR-OH),ED99 (MFC),[1],106.9 ^d µg/mL
same,ED99 (MFC),[2],53.4 ^g µg/mL
same,"Inhibitory effect on conidial germination (Er), peptide alone",[3]; 50 µg/mL,4.3 ^a %
same,"Inhibitory effect on conidial germination (Er), peptide alone",[3]; 100 µg/mL,6.2 ^b %
same,"Inhibitory effect on conidial germination (Er), peptide alone",[3]; 200 µg/mL,8.6 ^c %
same,"Inhibitory effect on conidial germination (Er), peptide alone",[3]; 400 µg/mL,11.6 ^c %
same,"Inhibitory effect on conidial germination (Er), peptide alone",[4]; 100 µg/mL,19.0 ^a %
same,"Inhibitory effect on conidial germination (Er), peptide alone",[4]; 200 µg/mL,31.0 ^b %
same,"Inhibitory effect on conidial germination (Er), peptide alone",[4]; 400 µg/mL,48.2 ^c %
CC(C)C[C@H](N)C(=O)N[C@@H](CS)C(=O)N[C@@H](CS)C(=O)NCC(=O)N[C@@H](CCCCN)C(=O)N[C@@H](Cc1ccc(O)cc1)C(=O)NCC(=O)N[C@@H](Cc1ccccc1)C(=O)N[C@@H](CS)C(=O)NCC(=O)N[C@@H](CO)C(=O)NCC(=O)O [WAMP-G1] (H-LCCGKYGFCGSG-OH),ED99 (MFC),[1],">10,000 µg/mL"
same,ED99 (MFC),[2],3980.0 ^f µg/mL
same,"Inhibitory effect on conidial germination (Er), peptide alone",[3]; 100 µg/mL,1.1 ^a %
same,"Inhibitory effect on conidial germination (Er), peptide alone",[3]; 200 µg/mL,8.0 ^b %
same,"Inhibitory effect on conidial germination (Er), peptide alone",[3]; 400 µg/mL,17.5 ^c %
same,"Inhibitory effect on conidial germination (Er), peptide alone",[4]; 100 µg/mL,2.0 ^a %
same,"Inhibitory effect on conidial germination (Er), peptide alone",[4]; 200 µg/mL,9.8 ^b %
same,"Inhibitory effect on conidial germination (Er), peptide alone",[4]; 400 µg/mL,21.9 ^c %
C[C@H](N)C(=O)N[C@@H](CCC(N)=O)C(=O)N[C@@H](CCCNC(=N)N)C(=O)N[C@@H](CS)C(=O)NCC(=O)N[C@@H](CC(=O)O)C(=O)N[C@@H](CCC(N)=O)C(=O)N[C@@H](C)C(=O)N[C@@H](CCCNC(=N)N)C(=O)NCC(=O)N[C@@H](C)C(=O)N[C@@H](CCCCN)C(=O)N[C@@H](CS)C(=O)O [WAMP-N] (H-AQRCGDQARGAKC-OH),ED99 (MFC),[1],22.7 µg/mL
same,"Inhibitory effect on conidial germination (Er), peptide alone",[3]; 50 µg/mL,12.3 ^a %
same,"Inhibitory effect on conidial germination (Er), peptide alone",[3]; 100 µg/mL,23.1 ^b %
same,"Inhibitory effect on conidial germination (Er), peptide alone",[3]; 200 µg/mL,42.7 ^c %
"CCGKYGFCGSGDAYC [WAMP-G2, chemically synthesized fragment (residues 18–32) from the central region of WAMP-2]",ED50,"[1]; 50% inhibition of microconidia germination, probit analysis, SDW, overnight 20–22 °C",0.35 ^a µg/mL
same,ED99 (MFC),"[1]; lowest concentration giving 99.9% inhibition of conidial germination, probit analysis",35.1 ^b µg/mL
same,"Expected additive inhibitory effect (Ee), peptide combined with Folicur",[3]; peptide 50 µg/mL + Folicur 0.005 µg/mL,14.5%
same,"Observed inhibitory effect (Er), peptide combined with Folicur","[3]; peptide 50 µg/mL + Folicur 0.005 µg/mL, mean of 3 experiments",27.8 ^b %
same,"Expected additive inhibitory effect (Ee), peptide combined with Folicur",[3]; peptide 50 µg/mL + Folicur 0.01 µg/mL,24.8%
same,"Observed inhibitory effect (Er), peptide combined with Folicur","[3]; peptide 50 µg/mL + Folicur 0.01 µg/mL, mean of 3 experiments",36.4 ^b %
same,"Expected additive inhibitory effect (Ee), peptide combined with Folicur",[3]; peptide 50 µg/mL + Folicur 0.05 µg/mL,33.0%
same,"Observed inhibitory effect (Er), peptide combined with Folicur","[3]; peptide 50 µg/mL + Folicur 0.05 µg/mL, mean of 3 experiments",47.4 ^b %
same,"Inhibitory effect on conidial germination (Er), peptide alone","[3]; peptide 50 µg/mL, Folicur 0.0 µg/mL, SDW, overnight 20–22 °C, mean of 3 experiments",7.0 ^a %
same,"Expected additive inhibitory effect (Ee), peptide combined with Folicur",[3]; peptide 100 µg/mL + Folicur 0.005 µg/mL,28.8%
same,"Observed inhibitory effect (Er), peptide combined with Folicur","[3]; peptide 100 µg/mL + Folicur 0.005 µg/mL, mean of 3 experiments",49.3 ^c %
same,"Expected additive inhibitory effect (Ee), peptide combined with Folicur",[3]; peptide 100 µg/mL + Folicur 0.01 µg/mL,37.7%
same,"Observed inhibitory effect (Er), peptide combined with Folicur","[3]; peptide 100 µg/mL + Folicur 0.01 µg/mL, mean of 3 experiments",53.1 ^c %
same,"Expected additive inhibitory effect (Ee), peptide combined with Folicur",[3]; peptide 100 µg/mL + Folicur 0.05 µg/mL,44.1%
same,"Observed inhibitory effect (Er), peptide combined with Folicur","[3]; peptide 100 µg/mL + Folicur 0.05 µg/mL, mean of 3 experiments",56.8 ^c %
same,"Inhibitory effect on conidial germination (Er), peptide alone","[3]; peptide 100 µg/mL, Folicur 0.0 µg/mL, SDW, overnight 20–22 °C, mean of 3 experiments",22.4 ^b %
same,"Expected additive inhibitory effect (Ee), peptide combined with Folicur",[3]; peptide 200 µg/mL + Folicur 0.005 µg/mL,41.8%
same,"Observed inhibitory effect (Er), peptide combined with Folicur","[3]; peptide 200 µg/mL + Folicur 0.005 µg/mL, mean of 3 experiments",62.6 ^d %
same,"Expected additive inhibitory effect (Ee), peptide combined with Folicur",[3]; peptide 200 µg/mL + Folicur 0.01 µg/mL,47.1%
same,"Observed inhibitory effect (Er), peptide combined with Folicur","[3]; peptide 200 µg/mL + Folicur 0.01 µg/mL, mean of 3 experiments",74.8 ^d %
same,"Expected additive inhibitory effect (Ee), peptide combined with Folicur",[3]; peptide 200 µg/mL + Folicur 0.05 µg/mL,52.7%
same,"Observed inhibitory effect (Er), peptide combined with Folicur","[3]; peptide 200 µg/mL + Folicur 0.05 µg/mL, mean of 3 experiments",87.1 ^d %
same,"Inhibitory effect on conidial germination (Er), peptide alone","[3]; peptide 200 µg/mL, Folicur 0.0 µg/mL, SDW, overnight 20–22 °C, mean of 3 experiments",34.1 ^c %
